SMILES strings stand for the structures. A value given as a limit tells only on which side of the number the result lay.

Data set [1] deals with T1, Tyrosine-protein kinase BTK (Homo sapiens, UniProt Q06187). Nature of the data set: Induction of BTK degradation in human MINO cells incubated for 24 hrs by Western blot. It is filed as cell-based. Conditions: dose 1-1000 nM, DDE = dose-dependent effect.
Data set [2] addresses T1, Tyrosine-protein kinase BTK. In words: Inhibition of BTK (unknown origin).
The test system of data set [3] is JeKo-1. Nature of the data set: cells. To be noted: Homo sapiens.
Data set [4] relates to JeKo-1. Nature of the data set: cells. To be noted: Homo sapiens. This is another data set of the same source.
The target in data set [5] is T1, Tyrosine-protein kinase BTK. Nature of the data set: Induction of BTK degradation in human MINO cells at 1000 nM incubated for 24 hrs by Western blot. It is filed as cell-based.
Data set [6] is described as follows: Tmax in Sprague-Dawley rat at 5 to 10 mg/kg, po administered as cassette dose measured upto 24 hrs by LC-MS analysis. Conditions: in vivo, dose 5-10 mg/kg. It is filed as ADME, organism-based.
The nature of data set [7]: Half life in Sprague-Dawley rat at 5 to 10 mg/kg, po administered as cassette dose measured upto 24 hrs by LC-MS analysis. To be noted: in vivo, dose 5-10 mg/kg. It is filed as ADME, organism-based.
Data set [8] is described as follows: AUC (0 to t) in Sprague-Dawley rat at 5 to 10 mg/kg, po administered as cassette dose measured upto 24 hrs by LC-MS analysis. It is filed as ADME, organism-based. Also noted: time < 24 hrs, route po. Conditions: in vivo, dose 5-10 mg/kg.
Data set [9] in a line: Cmax in Sprague-Dawley rat at 5 to 10 mg/kg, po administered as cassette dose measured upto 24 hrs by LC-MS analysis. Conditions: in vivo, dose 5-10 mg/kg. It is filed as ADME, organism-based. Also noted: time < 24 hrs, route po.
Data set [10] can be described thus: Dose normalized AUC (0 to t) in Sprague-Dawley rat at 5 to 10 mg/kg, po administered as cassette dose measured upto 24 hrs by LC-MS analysis. It is filed as ADME, organism-based. To be noted: in vivo, dose 5-10 mg/kg.
For the next data set, the system named is TMD8. In words: cells. To be noted: Homo sapiens.
A short description of data set [11]: AUC (0 to t) in ICR mouse at 20 mg/kg, po administered as single dose measured upto 48 hrs by LC-MS analysis. Also noted: dose 20 mg/kg, time < 48 hrs, route po. Conditions: in vivo. It is filed as ADME, organism-based.
Data set [12] can be described thus: Tmax in ICR mouse at 20 mg/kg, po administered as single dose measured upto 48 hrs by LC-MS analysis. It is filed as ADME, organism-based. Conditions: in vivo.
Data set [13] can be described thus: Half life in Sprague-Dawley rat at 10 mg/kg, po administered as cassette dose measured upto 24 hrs by LC-MS analysis. It is filed as ADME, organism-based. To be noted: in vivo.
Data set [14] can be described thus: Dose normalized AUC (0 to t) in Sprague-Dawley rat at 10 mg/kg, po administered as cassette dose measured upto 24 hrs by LC-MS analysis. It is filed as ADME, organism-based. Conditions: in vivo.
Data set [15] is described as follows: Cmax in ICR mouse at 20 mg/kg, po administered as single dose measured upto 48 hrs by LC-MS analysis. It is filed as ADME, organism-based. The arrangement: dose 20 mg/kg, time < 48 hrs, route po. To be noted: in vivo.
Another data set concerns OCI-Ly10. Nature of the data set: cells. Conditions: Homo sapiens.
A short description of data set [16]: AUC (0 to t) in Sprague-Dawley rat at 10 mg/kg, po administered as cassette dose measured upto 24 hrs by LC-MS analysis. The arrangement: dose 10 mg/kg, time < 24 hrs, route po. Conditions: in vivo. It is filed as ADME, organism-based.
In data set [17] the target is T1, Tyrosine-protein kinase BTK. In words: Induction of BTK degradation in human MINO cells incubated for 24 hrs by Western blot analysis. It is filed as cell-based. Conditions: dose 1-1000 nM, DDE = dose-dependent effect. In general terms: Immunoblotting shows a protein as a band on a membrane.
A short description of data set [18]: AUC (0 to infinity) in ICR mouse at 20 mg/kg, po administered as single dose measured upto 48 hrs by LC-MS analysis. It is filed as ADME, organism-based. To be noted: in vivo. Also noted: dose 20 mg/kg, time < 48 hrs, route po.
Another data set is described as follows: cells. Conditions: Homo sapiens, MINO.
Data set [19] can be described thus: Tmax in Sprague-Dawley rat at 10 mg/kg, po administered as cassette dose measured upto 24 hrs by LC-MS analysis. It is filed as ADME, organism-based. To be noted: in vivo.
The target of data set [20] is Tyrosine-protein kinase BTK (Mus musculus) (UniProt P35991). Nature of the data set: In vivo induction of BTK degradation in ICR mouse monocytes at 20 mg/kg, po after 8 hrs by Western blot analysis relative to control. It is filed as functional, organism-based. Conditions: Monocyte.
Data set [21] can be described thus: Half life in ICR mouse at 20 mg/kg, po administered as single dose measured upto 48 hrs by LC-MS analysis. It is filed as ADME, organism-based. Conditions: in vivo.
For another data set, the system named is MM1.S. Nature of the data set: cells. To be noted: Homo sapiens.
The nature of data set [22]: Cmax in Sprague-Dawley rat at 10 mg/kg, po administered as cassette dose measured upto 24 hrs by LC-MS analysis. It is filed as ADME, organism-based. Also noted: time < 24 hrs, dose 10 mg/kg, route po. To be noted: in vivo.

T1 sequence (Q06187 whole entry): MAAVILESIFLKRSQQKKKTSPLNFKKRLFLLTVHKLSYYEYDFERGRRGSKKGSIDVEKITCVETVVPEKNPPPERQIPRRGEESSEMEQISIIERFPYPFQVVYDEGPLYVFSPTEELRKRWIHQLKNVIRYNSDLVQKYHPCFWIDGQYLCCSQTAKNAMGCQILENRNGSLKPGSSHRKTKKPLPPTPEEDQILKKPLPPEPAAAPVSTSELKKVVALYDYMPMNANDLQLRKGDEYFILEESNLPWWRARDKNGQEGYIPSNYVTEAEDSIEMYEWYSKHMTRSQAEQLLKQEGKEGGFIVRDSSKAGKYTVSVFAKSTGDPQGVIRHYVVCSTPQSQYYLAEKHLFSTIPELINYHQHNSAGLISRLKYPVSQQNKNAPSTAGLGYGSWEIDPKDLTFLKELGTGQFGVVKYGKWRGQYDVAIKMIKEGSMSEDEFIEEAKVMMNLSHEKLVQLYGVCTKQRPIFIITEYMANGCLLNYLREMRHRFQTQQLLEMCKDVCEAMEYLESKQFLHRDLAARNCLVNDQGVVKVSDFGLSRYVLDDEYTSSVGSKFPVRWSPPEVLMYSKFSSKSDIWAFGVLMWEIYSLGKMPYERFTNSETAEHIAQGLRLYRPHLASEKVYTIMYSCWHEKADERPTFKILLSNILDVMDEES
Sequence of Tyrosine-protein kinase BTK (Mus musculus) (P35991 whole entry): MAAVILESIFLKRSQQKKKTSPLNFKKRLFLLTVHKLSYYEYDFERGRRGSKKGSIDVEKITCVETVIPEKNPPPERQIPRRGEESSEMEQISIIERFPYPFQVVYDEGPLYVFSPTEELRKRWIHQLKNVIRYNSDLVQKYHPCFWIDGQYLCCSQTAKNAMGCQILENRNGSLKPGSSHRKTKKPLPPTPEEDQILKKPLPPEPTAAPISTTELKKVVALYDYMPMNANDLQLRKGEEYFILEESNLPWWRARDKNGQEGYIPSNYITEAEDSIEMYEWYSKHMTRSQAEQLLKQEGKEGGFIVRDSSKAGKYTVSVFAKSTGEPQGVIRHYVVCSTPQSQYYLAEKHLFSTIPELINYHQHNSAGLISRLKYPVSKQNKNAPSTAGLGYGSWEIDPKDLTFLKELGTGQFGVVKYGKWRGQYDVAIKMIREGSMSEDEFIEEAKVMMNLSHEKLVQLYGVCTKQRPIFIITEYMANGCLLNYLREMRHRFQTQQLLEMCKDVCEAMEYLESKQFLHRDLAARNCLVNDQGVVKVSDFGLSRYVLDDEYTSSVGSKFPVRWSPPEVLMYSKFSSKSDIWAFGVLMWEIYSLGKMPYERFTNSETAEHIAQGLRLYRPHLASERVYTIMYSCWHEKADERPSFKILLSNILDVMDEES

For orientation: IC50 means the concentration that gives 50% inhibition. Lower therefore signals greater potency in that assay. On to `Nc1ncnc2c1c(-c1ccc(Oc3ccccc3)cc1)nn2[C@@H]1CCCN(C(=O)/C=C/C(=O)N2CCN(CC#Cc3ccc4c(c3)CN(C3CCC(=O)NC3=O)C4=O)CC2)C1` (some centres undefined), for which the Activity result in [1] was “Dde”. The IC50 in data set [2] came to 9 nM; in the data set with JeKo-1 [3], 296 nM; in the data set on JeKo-1 [4] it was 4960 nM.
As for `Nc1ncnc2c1c(-c1ccc(Oc3ccccc3)cc1)nn2[C@@H]1CCCN(C(=O)CCCCCCC(=O)NCC#CCN2CCN(CC#Cc3ccc4c(c3)CN(C3CCC(=O)NC3=O)C4=O)CC2)C1` (some centres undefined), in data set [1], the Activity result was “Dde”. This molecule also showed an IC50 in data set [2] of 9 nM.
For `Nc1ncnc2c1c(-c1ccc(Oc3ccccc3)cc1)nn2[C@@H]1CCCN(C(=O)CCCC(=O)NCC#CCN2CCN(CC#Cc3ccc4c(c3)CN(C3CCC(=O)NC3=O)C4=O)CC2)C1` (some centres undefined), the figures for the Activity in [5] and in [1] were over 50% and “Dde”, respectively. Moreover, in [2], the IC50 was determined as 9 nM.
Broadly, the Tmax is the time from dosing to the highest level. Usually half-life stands for the time in which the quantity being followed falls by half. A low value points to rapid decline. The AUC(0-t) is the area under the concentration-time curve up to a stated or last time point. A low value points to less exposure. Usually Cmax stands for the maximum level reached in the sampled fluid or tissue. `Nc1ncnc2c1c(-c1ccc(Oc3ccccc3)cc1)nn2[C@@H]1CCCN(C(=O)C2(C(=O)NCC#CCN3CCN(CC#Cc4ccc5c(c4)CN(C4CCC(=O)NC4=O)C5=O)CC3)CC2)C1` (some centres undefined): the Activity result in [1] was “Dde”. Moreover, the Tmax in data set [6] was 0.3 h. In data set [7], this molecule gave a half-life of 1.7 h. Further, the AUC(0-t) at 24 h in data set [8] came to 145 ng·h/mL. Also, in [2], the IC50 came to 9 nM. The highest level in data set [9] (Cmax) was 77 ng/mL. This molecule also had an AUCt/dose in [10] of 15 ng·h/mL/mg.
For `Nc1ncnc2c1c(-c1ccc(Oc3ccccc3)cc1)nn2[C@@H]1CCCN(C(=O)/C=C/C(=O)NCC#CCN2CCN(CC#Cc3ccc4c(c3)CN(C3CCC(=O)NC3=O)C4=O)CC2)C1` (some centres undefined), in data set [1], the Activity entry is “Dde”. Further, the time of peak concentration (Tmax) in data set [6] was 0.6 h. Further, the half-life in data set [7] was 1.5 h. The AUC(0-t) at 24 h in data set [8] is 20 ng·h/mL. The IC50 in data set [2] is 9 nM. The same molecule had a Cmax in data set [9] of 15 ng/mL. Besides, the AUCt/dose in data set [10] worked out at 2 ng·h/mL/mg.
By AUC(0-inf) is commonly meant total exposure, with the tail of the curve extrapolated. Low readings indicate low exposure, high ones high exposure. On to `Nc1ncnc2c1c(-c1ccc(Oc3ccccc3)cc1)nn2[C@@H]1CCCN(C(=O)CCC(=O)N2CCN(CC#Cc3ccc4c(c3)CN(C3CCC(=O)NC3=O)C4=O)CC2)C1` (some centres undefined), for which the IC50 is 16.3 nM in the data set with TMD8; 12.9 nM in the data set with OCI-Ly10; 6.3 nM in [2]; 123 nM in the data set “cells”; 825 nM in the data set on JeKo-1 [3]; 11600 nM with JeKo-1 [4]. This molecule yielded an IC50 in the data set on MM1.S of 1920 nM. The molecule also yielded an AUC(0-t) at 48 h in data set [11] of 374 ng·h/mL. Moreover, the Tmax in data set [12] was found to be 0.5 h; in data set [19], 0.7 h. Further, the half-life was 6.5 h in data set [13] and 2.6 h in data set [21]. The molecule further returned an AUCt/dose in data set [14] of 29 ng·h/mL/mg. Moreover, the Cmax amounted to 224 ng/mL in [15] and 84 ng/mL in data set [22]. In data set [16], this molecule registered an area under the curve AUC(0-t) at 24 h of 288 ng·h/mL. Besides, the Activity entry in [17] is “Dde”; in data set [20], 37.2%. In addition, the AUC(0-inf) in [18] was 404 ng·h/mL.
As for `O=C1CCC(N2C(=O)c3cccc(N4CCN(CC#CCN5CCN(c6ccc(C(F)(F)F)cc6)CC5)CC4)c3C2=O)C(=O)N1` (centres undefined), the Tmax in data set [6] was 0.9 h. The molecule also had a half-life in [7] of 10.3 h. In data set [8], this molecule displayed an AUC(0-t) at 24 h of 1720 ng·h/mL. In data set [9], this molecule showed a Cmax of 194 ng/mL. The AUCt/dose in [10] is 172 ng·h/mL/mg.
Regarding `O=C1CCC(N2C(=O)c3cccc(NCCN4CCN(CC#CCOc5ccc(C(F)(F)F)cc5)CC4)c3C2=O)C(=O)N1` (centres undefined), the Tmax in data set [6] amounted to 3.7 h. The molecule further gave a half-life in [7] of 17.7 h. Moreover, the AUC(0-t) at 24 h in data set [8] amounted to 328 ng·h/mL. Also, the peak level in data set [9] (Cmax) was 24 ng/mL. The molecule also gave an AUCt/dose in data set [10] of 65 ng·h/mL/mg.
With `Nc1ncnc2c1c(-c1ccc(Oc3ccccc3)cc1)nn2[C@@H]1CCCN(C(=O)[C@H]2CC[C@H](C(=O)NCC#CCN3CCN(CC#Cc4ccc5c(c4)CN(C4CCC(=O)NC4=O)C5=O)CC3)CC2)C1` (some centres undefined), the Activity entry in data set [1] is “Dde”. In [6], the Tmax worked out at 0.5 h. In data set [7], this molecule showed a half-life of 1.5 h. In [8], this molecule came in with an AUC(0-t) at 24 h of 112 ng·h/mL. Also, the IC50 in [2] was found to be 9 nM. Besides, the Cmax in [9] is 69 ng/mL. This molecule gave an AUCt/dose in data set [10] of 11 ng·h/mL/mg.

These data come from ChEMBL document CHEMBL5131541, “Structural Feature Analyzation Strategies toward Discovery of Orally Bioavailable PROTACs of Bruton's Tyrosine Kinase for the Treatment of Lymphoma” (J Med Chem, 2022).
